Assay [1] addresses T1, human V1a receptor (Homo sapiens, UniProt P37288).
T1 construct: expressed in transfected cells; host or cells: CHO K1 (ATCC), also stably transfected with a modified aequorin
Description: Cellular in vitro assay for determining vasopressin receptor activity, V1a receptor cell line (CHO, aequorin luminescence). Particulars: for IC50: CHO cell line transfected with human V1a receptor, [Arg]-vasopressin at EC50 concentration, read-out: IC50 hV1a; for ratio IC50 hV2/hV1a: selectivity ratio IC50 hV2 / IC50 hV1a. The format is cell-based. In outline:
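IC50 from inhibition of [Arg]-vasopressin (EC50 concentration)-evoked aequorin luminescence in CHO K1 cells, with 10-min compound pretreatment.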

Assay [2] addresses T2, human V2 receptor (Homo sapiens, UniProt P30518).
T2 construct: expressed in transfected cells; host or cells: CHO K1 (ATCC) expressing firefly luciferase under a CRE-responsive promoter
Description: Cellular in vitro assay for determining vasopressin receptor activity, V2 receptor cell line (CHO, CRE-luciferase). The format is cell-based. Particulars: CHO cell line transfected with human V2 receptor, [Arg8]-vasopressin at EC50 concentration, read-out: IC50 hV2.

From patent publication US11173151B2, “Substituted triazole derivatives and uses thereof” (BAYER AKTIENGESELLSCHAFT, priority 2017, dated 2021) come the findings set out here.

The structures appear in SMILES notation. Read-outs that look alike come from different tables or passages of the source.

T1 sequence (P37288 whole entry): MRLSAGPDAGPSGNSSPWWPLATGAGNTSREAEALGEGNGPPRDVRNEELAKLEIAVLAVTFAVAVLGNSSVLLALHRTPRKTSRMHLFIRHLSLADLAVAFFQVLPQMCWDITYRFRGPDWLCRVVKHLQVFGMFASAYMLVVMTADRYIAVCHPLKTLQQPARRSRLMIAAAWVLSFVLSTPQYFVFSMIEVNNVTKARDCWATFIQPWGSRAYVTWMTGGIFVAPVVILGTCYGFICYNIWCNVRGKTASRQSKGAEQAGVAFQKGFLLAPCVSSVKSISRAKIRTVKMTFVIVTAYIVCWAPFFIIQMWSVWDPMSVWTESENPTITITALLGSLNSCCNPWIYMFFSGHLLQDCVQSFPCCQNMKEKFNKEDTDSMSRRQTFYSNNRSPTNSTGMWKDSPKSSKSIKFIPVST
T2 sequence (P30518 whole entry): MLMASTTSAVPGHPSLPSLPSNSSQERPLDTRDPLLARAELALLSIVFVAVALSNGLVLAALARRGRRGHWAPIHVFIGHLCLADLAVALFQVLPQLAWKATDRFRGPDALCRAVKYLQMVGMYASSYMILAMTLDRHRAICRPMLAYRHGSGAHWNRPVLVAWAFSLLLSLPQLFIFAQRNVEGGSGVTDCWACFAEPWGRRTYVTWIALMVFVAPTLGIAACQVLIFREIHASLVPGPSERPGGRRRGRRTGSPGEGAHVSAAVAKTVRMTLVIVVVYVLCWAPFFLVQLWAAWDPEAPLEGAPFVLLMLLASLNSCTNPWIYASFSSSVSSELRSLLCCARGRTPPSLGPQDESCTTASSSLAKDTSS

The term IC50 denotes the point on the concentration scale where inhibition reaches its midpoint. Regarding `O=C(NCC(O)C(F)(F)F)c1ncccc1-n1cnc(Cn2nc(-c3ccc(Cl)cc3)n(C[C@@H](O)C(F)(F)F)c2=O)n1` (mixture of isomers) [Example 485, 3-[3-({3-(4-Chlorophenyl)-5-oxo-4-[(2R)-3,3,3-trifluoro-2-hydroxypropyl]-4,5-dihydro-1H-1,2,4-triazol-1-yl}methyl)-1H-1,2,4-triazol-1-yl]-N-[3,3,3-trifluoro-2-hydroxypropyl]pyridine-2-carboxamide], in assay [1], the IC50 worked out at 230 nM and the “ratio IC50 hV2/hV1a” value is 21.7. Also, the IC50 in assay [2] was 5000 nM.

On to `COCC1CCCN1C(=O)c1ccncc1-n1cnc(Cn2nc(-c3ccc(Cl)cc3)n(C[C@H](O)C(F)(F)F)c2=O)n1` (mixture of isomers) [Example 493, 5-(4-Chlorophenyl)-2-{[1-(4-{[2-(methoxymethyl)pyrrolidin-1-yl]carbonyl}pyridin-3-yl)-1H-1,2,4-triazol-3-yl]methyl}-4-[(2S)-3,3,3-trifluoro-2-hydroxypropyl]-2,4-dihydro-3H-1,2,4-triazol-3-one], for which, in assay [1], the IC50 stood at 13.5 nM and the “ratio IC50 hV2/hV1a” value amounted to 540.7. Besides, the IC50 in assay [2] is 7300 nM.

As to `O=C(NC1CC1F)c1cccnc1-n1cnc(Cn2nc(-c3ccc(Cl)cc3)n(C[C@H](O)C(F)(F)F)c2=O)n1` (mixture of isomers) [Example 503], in assay [1], the IC50 amounted to 5.55 nM and the “ratio IC50 hV2/hV1a” value came to 38.7. Also, the IC50 in assay [2] was 215 nM.

Take `COCC1CCCN1C(=O)c1ccncc1-n1nc(Cn2nc(-c3ccc(Cl)cc3)n(C[C@H](O)C(F)(F)F)c2=O)nc1C(=O)N1CCNC(=O)C1` (mixture of isomers) [Example 516, 4-{[3-({3-(4-Chlorophenyl)-5-oxo-4-[(2S)-3,3,3-trifluoro-2-hydroxypropyl]-4,5-dihydro-1H-1,2,4-triazol-1-yl}methyl)-1-(4-{[2-(methoxymethyl)pyrrolidin-1-yl]carbonyl}pyridin-3-yl)-1H-1,2,4-triazol-5-yl]carbonyl}piperazin-2-one]: in assay [1], the IC50 amounted to 5700 nM and the “ratio IC50 hV2/hV1a” value is 9.6. Further, the IC50 in assay [2] stood at 55000 nM.

For `COCC1CCCN1C(=O)c1ccncc1-n1nc(Cn2nc(-c3ccc(Cl)cc3)n(C[C@H](O)C(F)(F)F)c2=O)nc1C(=O)N1CCS(=O)(=O)CC1` (mixture of isomers) [Example 522, 5-(4-Chlorophenyl)-2-({5-[(1,1-dioxidothiomorpholin-4-yl)carbonyl]-1-(4-{[2-(methoxymethyl)pyrrolidin-1-yl]carbonyl}pyridin-3-yl)-1H-1,2,4-triazol-3-yl}methyl)-4-[(2S)-3,3,3-trifluoro-2-hydroxypropyl]-2,4-dihydro-3H-1,2,4-triazol-3-one], in assay [1], the IC50 came to 3000 nM and the “ratio IC50 hV2/hV1a” value turned out to be 5.0. Moreover, in assay [2], the IC50 came out at 15000 nM.

As for `COCC1CCCN1C(=O)c1cccnc1-n1nc(Cn2nc(-c3ccc(Cl)cc3)n(C[C@H](O)C(F)(F)F)c2=O)nc1C(=O)N1CCNC(=O)C1` (mixture of isomers) [Example 526, 4-{[3-({3-(4-Chlorophenyl)-5-oxo-4-[(2S)-3,3,3-trifluoro-2-hydroxypropyl]-4,5-dihydro-1H-1,2,4-triazol-1-yl}methyl)-1-(3-{[2-(methoxymethyl)pyrrolidin-1-yl]carbonyl}pyridin-2-yl)-1H-1,2,4-triazol-5-yl]carbonyl}piperazin-2-one], in assay [1], the IC50 turned out to be 8650 nM and the “ratio IC50 hV2/hV1a” value is listed as 2.3. Further, in assay [2], the IC50 is 20000 nM.

Take `COCC1CCCN1C(=O)c1cccnc1-n1nc(Cn2nc(-c3ccc(Cl)cc3)n(C[C@H](O)C(F)(F)F)c2=O)nc1C(=O)N1CCS(=O)(=O)CC1` (mixture of isomers) [Example 532, 5-(4-Chlorophenyl)-2-({5-[(1,1-dioxidothiomorpholin-4-yl)carbonyl]-1-(3-{[2-(methoxymethyl)pyrrolidin-1-yl]carbonyl}pyridin-2-yl)-1H-1,2,4-triazol-3-yl}methyl)-4-[(2S)-3,3,3-trifluoro-2-hydroxypropyl]-2,4-dihydro-3H-1,2,4-triazol-3-one]: the IC50 in assay [1] was determined as 275 nM; in assay [2], 4850 nM. Moreover, the “ratio IC50 hV2/hV1a” value in assay [1] came out at 17.6.

Regarding `COCC1CCCN1C(=O)c1ccncc1-n1nc(Cn2nc(-c3ccc(Cl)cc3)n(C[C@H](O)C(F)(F)F)c2=O)nc1C(=O)NCC(C)(C)N` (mixture of isomers) [Example 536, N-(2-amino-2-methylpropyl)-3-({3-(4-chlorophenyl)-5-oxo-4-[(2S)-3,3,3-trifluoro-2-hydroxypropyl]-4,5-dihydro-1H-1,2,4-triazol-1-yl}methyl)-1-(4-{[2-(methoxymethyl)pyrrolidin-1-yl]carbonyl}pyridin-3-yl)-1H-1,2,4-triazol-5-carboxamide], the values for the IC50 in assay [1] and in assay [2] were 280 nM and 83300 nM, respectively. Besides, the “ratio IC50 hV2/hV1a” value in assay [1] is 297.6.

For `O=C(Nc1cccnc1-n1cnc(Cn2nc(-c3ccc(Cl)cc3)n(C[C@H](O)C(F)(F)F)c2=O)n1)[C@@H]1C[C@@H]1C(F)(F)F` (racemic) [Example 45, N-{2-[3-({3-(4-Chlorophenyl)-5-oxo-4-[(2S)-3,3,3-trifluoro-2-hydroxypropyl]-4,5-dihydro-1H-1,2,4-triazol-1-yl}methyl)-1H-1,2,4-triazol-1-yl]pyridin-3-yl}-2-(trifluoromethyl)cyclopropanecarboxamide], in assay [1], the IC50 came out at 33 nM and the “ratio IC50 hV2/hV1a” value was found to be 21.0. The IC50 in assay [2] (3 hours) was determined as 693 nM.

Take `O=C(Nc1ncccc1-n1cnc(Cn2nc(-c3ccc(Cl)cc3)n(C[C@H](O)C(F)(F)F)c2=O)n1)[C@@H]1C[C@@H]1F` (racemic) [Example 76, N-{3-[3-({3-(4-Chlorophenyl)-5-oxo-4-[(2S)-3,3,3-trifluoro-2-hydroxypropyl]-4,5-dihydro-1H-1,2,4-triazol-1-yl}methyl)-1H-1,2,4-triazol-1-yl]pyridin-2-yl}-2-fluorocyclopropanecarboxamide]: in assay [1], the IC50 was 6.45 nM and the “ratio IC50 hV2/hV1a” value stood at 362.4. Further, the IC50 in assay [2] (3 hours) was found to be 2340 nM.

On to `O=C(Nc1ncccc1-n1cnc(Cn2nc(-c3ccc(Cl)cc3)n(C[C@H](O)C(F)(F)F)c2=O)n1)[C@@H]1C[C@@H]1C(F)(F)F` (racemic) [Example 79, N-{3-[3-({3-(4-Chlorophenyl)-5-oxo-4-[(2S)-3,3,3-trifluoro-2-hydroxypropyl]-4,5-dihydro-1H-1,2,4-triazol-1-yl}methyl)-1H-1,2,4-triazol-1-yl]pyridin-2-yl}-2-(trifluoromethyl)cyclopropanecarboxamide], for which the figures for the IC50 in assay [1] and in assay [2] (3 hours) were 102 nM and 10500 nM, respectively. In addition, the “ratio IC50 hV2/hV1a” value in assay [1] is 102.9.

In the case of `O=C(Nc1ncccc1-n1cnc(Cn2nc(-c3ccc(Cl)cc3)n(C[C@H](O)C(F)(F)F)c2=O)n1)[C@H]1C[C@@H]1F` (racemic) [Example 84, N-{3-[3-({3-(4-Chlorophenyl)-5-oxo-4-[(2S)-3,3,3-trifluoro-2-hydroxypropyl]-4,5-dihydro-1H-1,2,4-triazol-1-yl}methyl)-1H-1,2,4-triazol-1-yl]pyridin-2-yl}-2-fluorocyclopropanecarboxamide], in assay [1], the IC50 worked out at 9.95 nM and the “ratio IC50 hV2/hV1a” value is 321.6. Also, the IC50 in assay [2] (3 hours) amounted to 3200 nM.

With `O=C(N[C@H]1C[C@H]1F)c1cccc(Cl)c1-n1cnc(Cn2nc(-c3ccc(Cl)cc3)n(C[C@H](O)C(F)(F)F)c2=O)n1` (racemic) [Example 389, 3-Chloro-2-[3-({3-(4-chlorophenyl)-5-oxo-4-[(2S)-3,3,3-trifluoro-2-hydroxypropyl]-4,5-dihydro-1H-1,2,4-triazol-1-yl}methyl)-1H-1,2,4-triazol-1-yl]-N-[2-fluorocyclopropyl]benzamide], in assay [1], the half-maximal inhibitory concentration (IC50) is 2.65 nM and the “ratio IC50 hV2/hV1a” value is reported as 315.1. Further, the IC50 in assay [2] (3 hours) was determined as 835 nM.

As for `O=C(N[C@H]1C[C@H]1F)c1cccc(Cl)c1-n1cnc(Cn2nc(-c3ccc(Cl)cc3)n(C[C@@H](O)C(F)(F)F)c2=O)n1` (racemic) [Example 397, 3-Chloro-2-[3-({3-(4-chlorophenyl)-5-oxo-4-[(2R)-3,3,3-trifluoro-2-hydroxypropyl]-4,5-dihydro-1H-1,2,4-triazol-1-yl}methyl)-1H-1,2,4-triazol-1-yl]-N-[2-fluorocyclopropyl]benzamide], in assay [1], the IC50 was determined as 72 nM and the “ratio IC50 hV2/hV1a” value came to 96.5. Also, in assay [2] (3 hours), the IC50 amounted to 6950 nM.

As to `O=C(N[C@@H]1C[C@@H]1F)c1cccc(C(F)(F)F)c1-n1cnc(Cn2nc(-c3ccc(Cl)cc3)n(C[C@H](O)C(F)(F)F)c2=O)n1` (racemic) [Example 413, 2-[3-({3-(4-Chlorophenyl)-5-oxo-4-[(2S)-3,3,3-trifluoro-2-hydroxypropyl]-4,5-dihydro-1H-1,2,4-triazol-1-yl}methyl)-1H-1,2,4-triazol-1-yl]-N-[2-fluorocyclopropyl]-3-(trifluoromethyl)benzamide], in assay [1], the IC50 is 34.5 nM and the “ratio IC50 hV2/hV1a” value amounted to 59.4. For the same compound, the half-maximal inhibitory concentration (IC50) in assay [2] was 2050 nM.

With `O=C(N[C@H]1C[C@@H]1F)c1cccc(C(F)(F)F)c1-n1cnc(Cn2nc(-c3ccc(Cl)cc3)n(C[C@H](O)C(F)(F)F)c2=O)n1` (racemic) [Example 422, 2-[3-({3-(4-Chlorophenyl)-5-oxo-4-[(2S)-3,3,3-trifluoro-2-hydroxypropyl]-4,5-dihydro-1H-1,2,4-triazol-1-yl}methyl)-1H-1,2,4-triazol-1-yl]-N-[2-fluorocyclopropyl]-3-(trifluoromethyl)benzamide], the IC50 in assay [1] turned out to be 30 nM; in assay [2], 2800 nM. Besides, the “ratio IC50 hV2/hV1a” value in assay [1] is reported as 93.3.
